PubChem BioAssay AID248 (DTP/NCI, 2004)
Several values for one entry are separate records, joined by “and”; a condition that tells them apart may be missing. Equal values may be shown once. Toxic doses and inconclusive results are not listed. No stated cut-off is given here; in the data, active means T/C of 150% or more; inactive means T/C below 125%.

Tested on: L1210 leukemia ip in BDF1 mice, survival T/C
Experiment: NCI In Vivo Anticancer Drug Screen. Data for tumor model L1210 Leukemia (intraperitoneal) in B6D2F1 (BDF1) mice
Details: endpoint: mean survival time, higher = longer survival
Procedure, shortened: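 Each compound was tested against a transplantable tumor grown in mice. The endpoint was survival, with treated animals benchmarked against vehicle controls as a simple ratio.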

[1] = dose: 100.0 mg/kg/injection, schedule: Q01DX009 (ip), vehicle: Klucel (hydroxypropylcellulose) (HPC)
[2] = dose: 200.0 mg/kg/injection, schedule: Q01DX009 (ip), vehicle: Klucel (hydroxypropylcellulose) (HPC)
[3] = dose: 400.0 mg/kg/injection, schedule: Q01DX009 (ip), vehicle: Klucel (hydroxypropylcellulose) (HPC)
[4] = dose: 100.0 mg/kg/injection, schedule: Q01DX001 (ip), vehicle: saline
[5] = dose: 200.0 mg/kg/injection, schedule: Q01DX001 (ip), vehicle: saline
[6] = dose: 400.0 mg/kg/injection, schedule: Q01DX001 (ip), vehicle: saline
[7] = dose: 100.0 mg/kg/injection, schedule: Q01DX009 (ip), vehicle: saline with Tween-80

Measured: T/C

CC(=NCc1ccccc1)Nc1ccc(NC(=O)c2ccc(C(=O)Nc3ccc(NC(C)=NCc4ccccc4)cc3)cc2)cc1
inactive: dose: 15.0 mg/kg/injection, schedule: Q01DX Z (ip), vehicle: carboxymethylcellulose (CMC) 92 % of control | dose: 30.0 mg/kg/injection, schedule: Q01DX Z (ip), vehicle: carboxymethylcellulose (CMC) 103 % of control | dose: 60.0 mg/kg/injection, schedule: Q01DX Z (ip), vehicle: carboxymethylcellulose (CMC) 95 % of control | dose: 120.0 mg/kg/injection, schedule: Q01DX Z (ip), vehicle: carboxymethylcellulose (CMC) 97 % of control

CC(OC(=O)c1ccc([N+](=O)[O-])cc1)C(C)OC(=O)c1ccc([N+](=O)[O-])cc1 (stereo unspecified)
inactive: dose: 100.0 mg/kg/injection, schedule: Q01DX001 (ip), vehicle: Klucel (hydroxypropylcellulose) (HPC) 92 % of control | dose: 200.0 mg/kg/injection, schedule: Q01DX001 (ip), vehicle: Klucel (hydroxypropylcellulose) (HPC) 97 % of control | dose: 400.0 mg/kg/injection, schedule: Q01DX001 (ip), vehicle: Klucel (hydroxypropylcellulose) (HPC) 97 % of control

CC(C)(C)NC(=O)NCc1ccc(Cl)c(Cl)c1
inactive: [1] 92 % of control | [2] 93 % of control | [3] 98 % of control

CC/C(=N/OC(=O)N(C)C)c1ccccc1
inactive: [4] 96 % of control | [5] 100 % of control | [6] 104 % of control

ClCc1nc2ccc(Cl)cc2[nH]1
inactive: dose: 100.0 mg/kg/injection, schedule: Q01DX001 (ip), vehicle: other 104 % of control | dose: 200.0 mg/kg/injection, schedule: Q01DX001 (ip), vehicle: other 106 % of control

C/C=C/C=N/NC(=O)c1ccccc1O
inactive: [1] 102 % of control | [2] 105 % of control | [3] 94 % of control

CC(C)NC(=O)C1C2CCC(CC2)C1C(=O)NC(C)C (stereo unspecified)
inactive: dose: 100.0 mg/kg/injection, schedule: Q04DX003 (ip), vehicle: saline with Tween-80 96 % of control | dose: 200.0 mg/kg/injection, schedule: Q04DX003 (ip), vehicle: saline with Tween-80 86 % of control | dose: 400.0 mg/kg/injection, schedule: Q04DX003 (ip), vehicle: saline with Tween-80 86 % of control

O=C(O)C1Cc2ccccc2CN1 (stereo unspecified)
inactive: dose: 25.0 mg/kg/injection, schedule: Q01DX009 (ip), vehicle: saline with Tween-80 95 % of control | dose: 50.0 mg/kg/injection, schedule: Q01DX009 (ip), vehicle: saline with Tween-80 98 % of control | [7] 96 % of control and 106 % of control

CC1=CC(C)(C(Cl)(Cl)Cl)C=C/C1=N\OC(C)C(=O)O (stereo unspecified)
inactive: dose: 75.0 mg/kg/injection, schedule: Q01DX001 (ip), vehicle: carboxymethylcellulose (CMC) 95 % of control | dose: 100.0 mg/kg/injection, schedule: Q04DX003 (ip), vehicle: saline 106 % of control | dose: 150.0 mg/kg/injection, schedule: Q01DX001 (ip), vehicle: carboxymethylcellulose (CMC) 106 % of control | dose: 200.0 mg/kg/injection, schedule: Q04DX003 (ip), vehicle: saline 95 % of control | dose: 400.0 mg/kg/injection, schedule: Q04DX003 (ip), vehicle: saline 97 % of control

CNC(=O)Oc1c([N+](=O)[O-])c([N+](=O)[O-])cc2ccccc12
inactive: dose: 75.0 mg/kg/injection, schedule: Q01DX001 (ip), vehicle: other 100 % of control

O=C(O)CNC(=O)c1cccc([N+](=O)[O-])c1
inactive: dose: 100.0 mg/kg/injection, schedule: Q04DX003 (ip), vehicle: Klucel (hydroxypropylcellulose) (HPC) 99 % of control | dose: 200.0 mg/kg/injection, schedule: Q04DX003 (ip), vehicle: Klucel (hydroxypropylcellulose) (HPC) 101 % of control | dose: 400.0 mg/kg/injection, schedule: Q04DX003 (ip), vehicle: Klucel (hydroxypropylcellulose) (HPC) 94 % of control

C=CCc1ccc(OC(=O)Nc2ccc(S(=O)(=O)NC3CCCCC3)cc2)c(OC)c1
inactive: [4] 91 % of control | [5] 94 % of control | [6] 96 % of control

CCOC(=O)NNOC(=O)CC
inactive: dose: 100.0 mg/kg/injection, schedule: Q01DX001 (ip), vehicle: saline with Tween-80 92 % of control | dose: 200.0 mg/kg/injection, schedule: Q01DX001 (ip), vehicle: saline with Tween-80 95 % of control

CCC(C)C1NC(=O)C(NC(=O)c2c3nc4c(C(=O)NC5C(=O)NC(C(C)CC)C(=O)N6CCCC6C(=O)N(C)CC(=O)N(C)C(C(C)C)C(=O)OC5C)cc(N)c(C)c4oc-3c(C)c(=O)c2N)C(C)OC(=O)C(C(C)C)N(C)C(=O)CN(C)C(=O)C2CCCN2C1=O (stereo unspecified)
inactive: dose: 75.0 micrograms/kg/injection, schedule: Q01DX009 (ip), vehicle: saline + alcohol 119 % of control | dose: 100.0 micrograms/kg/injection, schedule: Q01DX009 (ip), vehicle: saline + alcohol 121 % of control | dose: 150.0 micrograms/kg/injection, schedule: Q01DX009 (ip), vehicle: saline + alcohol 124 % of control | dose: 300.0 micrograms/kg/injection, schedule: Q01DX009 (ip), vehicle: saline + alcohol 105 % of control | dose: 300.0 micrograms/kg/injection, schedule: Q04DX003 (ip), vehicle: saline + alcohol 122 % of control | dose: 400.0 micrograms/kg/injection, schedule: Q01DX009 (ip), vehicle: saline + alcohol 86 % of control

Ic1cccc(Oc2ccccc2)c1
inactive: [7] 114 % of control | dose: 200.0 mg/kg/injection, schedule: Q01DX009 (ip), vehicle: saline with Tween-80 91 % of control
